Test results: PMC10008561 (Nature Communications, 2023)
“And” between values parts separate entries of the source, which are not always exact repeats. Equal values may be shown once. Read-outs that look alike come from different tables or passages of the source.

Columns and labels:
human KOR (Gz) [1] = biological target: T1, human KOR (Gz) (Homo sapiens, UniProt P41145, N326A); experiment: cell-based
T1 construct: expressed in transfected cells; host or cells: HEK293T

human KOR (Gz) [2] = biological target: T2, human KOR (Gz) (Homo sapiens, UniProt P41145, Q115N); experiment: cell-based
T2 construct: expressed in transfected cells; host or cells: HEK293T

human KOR (Gz) [3] = biological target: T3, human KOR (Gz) (Homo sapiens, UniProt P41145); experiment: cell-based
T3 construct: expressed in transfected cells; host or cells: HEK293T

human KOR (Gz) [4] = biological target: T4, human KOR (Gz) (Homo sapiens, UniProt P41145, D334A); experiment: cell-based
T4 construct: expressed in transfected cells; host or cells: HEK293T

human KOR (Gz) [5] = biological target: T5, human KOR (Gz) (Homo sapiens, UniProt P41145, Y139L); experiment: cell-based
T5 construct: expressed in transfected cells; host or cells: HEK293T

human KOR (Gz) [6] = biological target: T6, human KOR (Gz) (Homo sapiens, UniProt P41145, D266A); experiment: cell-based
T6 construct: expressed in transfected cells; host or cells: HEK293T

human KOR (Gz) [7] = biological target: T7, human KOR (Gz) (Homo sapiens, UniProt P41145, Y320L); experiment: cell-based
T7 construct: expressed in transfected cells; host or cells: HEK293T

human KOR (Gz) [8] = biological target: T8, human KOR (Gz) (Homo sapiens, UniProt P41145, D105A); experiment: cell-based
T8 construct: expressed in transfected cells; host or cells: HEK293T

human KOR (Gz) [9] = biological target: T9, human KOR (Gz) (Homo sapiens, UniProt P41145, D155A); experiment: cell-based; conditions: HEK-293T
T9 construct: expressed in transfected cells; host or cells: HEK293T

human KOR (Gz) [10] = biological target: T10, human KOR (Gz) (Homo sapiens, UniProt P41145, F283A); experiment: cell-based
T10 construct: expressed in transfected cells; host or cells: HEK293T

KOR Q115N = KOR Q115N (Homo sapiens, UniProt P41145, Q115N); experiment: cell-based; design: TEV cleavage site (C); tTA transcription factor (C); expressed in transfected cells; host or cells: HTLA cells; conditions: read-out: Tango response (Figure S4C), KOR Q115N, Log [Drug], replicate values
human KOR (GoA) [11] = biological target: T11, human KOR (GoA) (Homo sapiens, UniProt P41145, K227A); experiment: cell-based
T11 construct: expressed in transfected cells; host or cells: HEK293T

human KOR (GoA) [12] = biological target: T12, human KOR (GoA) (Homo sapiens, UniProt P41145, D155A); experiment: cell-based
T12 construct: expressed in transfected cells; host or cells: HEK293T

human KOR (GoA) [13] = biological target: T13, human KOR (GoA) (Homo sapiens, UniProt P41145); experiment: cell-based
T13 construct: expressed in transfected cells; host or cells: HEK293T

human KOR (GoA) [14] = biological target: T14, human KOR (GoA) (Homo sapiens, UniProt P41145, R271A); experiment: cell-based
T14 construct: expressed in transfected cells; host or cells: HEK293T

human KOR (GoA) [15] = biological target: T15, human KOR (GoA) (Homo sapiens, UniProt P41145, T94V); experiment: cell-based
T15 construct: expressed in transfected cells; host or cells: HEK293T

human KOR (GoA) [16] = biological target: T16, human KOR (GoA) (Homo sapiens, UniProt P41145, N326A); experiment: cell-based
T16 construct: expressed in transfected cells; host or cells: HEK293T

human KOR (GoA) [17] = biological target: T17, human KOR (GoA) (Homo sapiens, UniProt P41145, Q115N); experiment: cell-based
T17 construct: expressed in transfected cells; host or cells: HEK293T

human KOR (GoA) [18] = biological target: T18, human KOR (GoA) (Homo sapiens, UniProt P41145, R257A); experiment: cell-based
T18 construct: expressed in transfected cells; host or cells: HEK293T

human KOR (GoA) [19] = biological target: T19, human KOR (GoA) (Homo sapiens, UniProt P41145, R170A); experiment: cell-based
T19 construct: expressed in transfected cells; host or cells: HEK293T

human KOR (GoA) [20] = biological target: T20, human KOR (GoA) (Homo sapiens, UniProt P41145, R274A); experiment: cell-based
T20 construct: expressed in transfected cells; host or cells: HEK293T

human KOR (GoA) [21] = biological target: T21, human KOR (GoA) (Homo sapiens, UniProt P41145, Y320L); experiment: cell-based; conditions: HEK-293T
T21 construct: expressed in transfected cells; host or cells: HEK293T

human KOR (GoA) [22] = biological target: T22, human KOR (GoA) (Homo sapiens, UniProt P41145, F283A); experiment: cell-based
T22 construct: expressed in transfected cells; host or cells: HEK293T

human KOR (GoA) [23] = biological target: T23, human KOR (GoA) (Homo sapiens, UniProt P41145, Y139L); experiment: cell-based
T23 construct: expressed in transfected cells; host or cells: HEK293T

human KOR (GoA) [24] = biological target: T24, human KOR (GoA) (Homo sapiens, UniProt P41145, N141A); experiment: cell-based
T24 construct: expressed in transfected cells; host or cells: HEK293T

human KOR (GoA) [25] = biological target: T25, human KOR (GoA) (Homo sapiens, UniProt P41145, L253A); experiment: cell-based; conditions: HEK-293T
T25 construct: expressed in transfected cells; host or cells: HEK293T

human KOR (GoA) [26] = biological target: T26, human KOR (GoA) (Homo sapiens, UniProt P41145, F114L); experiment: cell-based
T26 construct: expressed in transfected cells; host or cells: HEK293T

human KOR (GoA) [27] = biological target: T27, human KOR (GoA) (Homo sapiens, UniProt P41145, K200A); experiment: cell-based
T27 construct: expressed in transfected cells; host or cells: HEK293T

human KOR (GoA) [28] = biological target: T28, human KOR (GoA) (Homo sapiens, UniProt P41145, E297A); experiment: cell-based
T28 construct: expressed in transfected cells; host or cells: HEK293T

MOR = biological target: T29, MOR (Homo sapiens, UniProt P35372); experiment: Radioligand competition binding (3H-Diprenorphine)
T29 construct: expressed in transfected cells; host or cells: HEK293

[29] = HEK-293T, read-out: Gz (Figure 5A concentration-response, replicate values)

T3 sequence (P41145 whole entry): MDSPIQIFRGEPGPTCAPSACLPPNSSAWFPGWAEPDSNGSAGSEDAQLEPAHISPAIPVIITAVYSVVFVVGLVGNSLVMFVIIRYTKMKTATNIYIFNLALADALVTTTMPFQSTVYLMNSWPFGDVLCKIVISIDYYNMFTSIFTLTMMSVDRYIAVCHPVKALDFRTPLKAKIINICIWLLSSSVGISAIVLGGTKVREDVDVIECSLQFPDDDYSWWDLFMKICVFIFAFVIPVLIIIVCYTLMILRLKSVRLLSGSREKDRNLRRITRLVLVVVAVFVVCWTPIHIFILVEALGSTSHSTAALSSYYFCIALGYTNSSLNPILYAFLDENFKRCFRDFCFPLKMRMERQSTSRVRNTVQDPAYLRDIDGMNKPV
T13 sequence (P41145 whole entry): as above
T19 sequence (P41145 whole entry R170A): as the sequence (P41145 whole entry) above, with R170A counted along it
T12 sequence (P41145 whole entry D155A): as the sequence (P41145 whole entry) above, with D155A counted along it
Chain of KOR Q115N (P41145 whole entry Q115N): as the sequence (P41145 whole entry) above, with Q115N counted along it
Chain of KOR Q115N (P32121 whole entry partner): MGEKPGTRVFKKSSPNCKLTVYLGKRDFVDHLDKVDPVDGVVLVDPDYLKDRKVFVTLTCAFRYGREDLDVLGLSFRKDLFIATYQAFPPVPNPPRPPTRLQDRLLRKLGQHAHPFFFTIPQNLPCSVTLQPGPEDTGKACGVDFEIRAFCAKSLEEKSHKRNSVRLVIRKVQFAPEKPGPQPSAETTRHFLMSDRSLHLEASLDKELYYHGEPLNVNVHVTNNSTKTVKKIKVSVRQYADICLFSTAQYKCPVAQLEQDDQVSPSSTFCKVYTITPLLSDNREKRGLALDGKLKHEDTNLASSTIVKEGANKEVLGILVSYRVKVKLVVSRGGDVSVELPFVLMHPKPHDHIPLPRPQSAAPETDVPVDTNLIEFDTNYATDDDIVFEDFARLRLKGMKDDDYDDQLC
T26 sequence (P41145 whole entry F114L): as the sequence (P41145 whole entry) above, with F114L counted along it
T8 sequence (P41145 whole entry D105A): as the sequence (P41145 whole entry) above, with D105A counted along it
T6 sequence (P41145 whole entry D266A): as the sequence (P41145 whole entry) above, with D266A counted along it
T10 sequence (P41145 whole entry F283A): as the sequence (P41145 whole entry) above, with F283A counted along it
T22 sequence (P41145 whole entry F283A): as the sequence (P41145 whole entry) above, with F283A counted along it
T5 sequence (P41145 whole entry Y139L): as the sequence (P41145 whole entry) above, with Y139L counted along it
T18 sequence (P41145 whole entry R257A): as the sequence (P41145 whole entry) above, with R257A counted along it
T15 sequence (P41145 whole entry T94V): as the sequence (P41145 whole entry) above, with T94V counted along it
T27 sequence (P41145 whole entry K200A): as the sequence (P41145 whole entry) above, with K200A counted along it
T4 sequence (P41145 whole entry D334A): as the sequence (P41145 whole entry) above, with D334A counted along it
T24 sequence (P41145 whole entry N141A): as the sequence (P41145 whole entry) above, with N141A counted along it
T20 sequence (P41145 whole entry R274A): as the sequence (P41145 whole entry) above, with R274A counted along it
T28 sequence (P41145 whole entry E297A): as the sequence (P41145 whole entry) above, with E297A counted along it
T11 sequence (P41145 whole entry K227A): as the sequence (P41145 whole entry) above, with K227A counted along it
T7 sequence (P41145 whole entry Y320L): as the sequence (P41145 whole entry) above, with Y320L counted along it
T2 sequence (P41145 whole entry Q115N): as the sequence (P41145 whole entry) above, with Q115N counted along it
T17 sequence (P41145 whole entry Q115N): as the sequence (P41145 whole entry) above, with Q115N counted along it
T1 sequence (P41145 whole entry N326A): as the sequence (P41145 whole entry) above, with N326A counted along it
T16 sequence (P41145 whole entry N326A): as the sequence (P41145 whole entry) above, with N326A counted along it
T14 sequence (P41145 whole entry R271A): as the sequence (P41145 whole entry) above, with R271A counted along it
T25 sequence (P41145 whole entry L253A): as the sequence (P41145 whole entry) above, with L253A counted along it
T29 sequence (P35372 whole entry): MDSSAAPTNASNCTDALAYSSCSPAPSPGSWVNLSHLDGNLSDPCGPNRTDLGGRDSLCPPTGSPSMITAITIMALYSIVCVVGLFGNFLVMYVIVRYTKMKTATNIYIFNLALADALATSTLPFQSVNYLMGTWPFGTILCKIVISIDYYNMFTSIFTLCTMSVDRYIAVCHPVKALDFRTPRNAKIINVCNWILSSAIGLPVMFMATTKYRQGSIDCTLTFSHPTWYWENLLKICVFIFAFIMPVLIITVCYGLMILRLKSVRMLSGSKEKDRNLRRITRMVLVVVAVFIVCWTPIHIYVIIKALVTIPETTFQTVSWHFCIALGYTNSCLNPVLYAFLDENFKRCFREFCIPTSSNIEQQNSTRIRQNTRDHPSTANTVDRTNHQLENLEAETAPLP
T23 sequence (P41145 whole entry Y139L): as the sequence (P41145 whole entry) above, with Y139L counted along it
T9 sequence (P41145 whole entry D155A): as the sequence (P41145 whole entry) above, with D155A counted along it
T21 sequence (P41145 whole entry Y320L): as the sequence (P41145 whole entry) above, with Y320L counted along it

CN(C(=O)/C=C/c1ccoc1)[C@@H]1CC[C@@]2(O)[C@H]3Cc4ccc(O)c5c4[C@@]2(CCN3CC2CC2)[C@H]1O5 [Nalfurafine, nalfurafine]
FC vs wild type (human KOR (Gz) [1]): 69 | Emax (human KOR (Gz) [1]; HEK-293T): 96.9% | FC vs wild type (human KOR (Gz) [2]): 39 | Emax (human KOR (Gz) [2]; HEK-293T): 78.7% | Emax% (human KOR (Gz) [3]): 96.48% | FC vs wild type (human KOR (Gz) [3]): 1 | Emax (human KOR (Gz) [3]; HEK-293T): 96.7% | activation at 10 pM (human KOR (Gz) [3]; [29]): 45.5% | activation at 0.1 µM (human KOR (Gz) [3]; [29]): 99.7% | activation at 1 µM (human KOR (Gz) [3]; [29]): 111% | activation at 10 µM (human KOR (Gz) [3]; [29]): 97.8% | FC vs wild type (human KOR (Gz) [4]): 112 | Emax (human KOR (Gz) [4]; HEK-293T): 99.2% | FC vs wild type (human KOR (Gz) [5]): 4 | Emax (human KOR (Gz) [5]; HEK-293T): 103% | FC vs wild type (human KOR (Gz) [6]): 1259 | Emax (human KOR (Gz) [6]; HEK-293T): 112% | FC vs wild type (human KOR (Gz) [7]): 407 | Emax (human KOR (Gz) [7]; HEK-293T): 93.7% | FC vs wild type (human KOR (Gz) [8]): 479 | Emax (human KOR (Gz) [8]; HEK-293T): 103% | Emax (human KOR (Gz) [9]): 92.7% | FC vs wild type (human KOR (Gz) [10]): 44 | Emax (human KOR (Gz) [10]; HEK-293T): 106% | activation at 10 µM (KOR Q115N; M -5): 106% | activation at […] (KOR Q115N; M -6.5): 92.3% | activation at 0.1 µM (KOR Q115N; M -7): 92.6% | activation at […] (KOR Q115N; M -7.5): 76.8% | activation at 0.01 µM (KOR Q115N; M -8): 80.2% | activation at […] (KOR Q115N; M -8.5): 39% | FC vs wild type (human KOR (GoA) [11]): 1 | Emax (human KOR (GoA) [11]; HEK-293T): 107% | FC vs wild type (human KOR (GoA) [12]): 9 and < 10 | Emax (human KOR (GoA) [12]; HEK-293T): 95.7% | Emax% (human KOR (GoA) [13]): 98.31% | FC vs wild type (human KOR (GoA) [13]): 1 | Emax (human KOR (GoA) [13]; HEK-293T): 98.7% | FC vs wild type (human KOR (GoA) [14]): 135 | Emax (human KOR (GoA) [14]; HEK-293T): 107% | FC vs wild type (human KOR (GoA) [15]): 1 | Emax (human KOR (GoA) [15]; HEK-293T): 99.7% | FC vs wild type (human KOR (GoA) [16]): 4 | Emax (human KOR (GoA) [16]; HEK-293T): 103% | FC vs wild type (human KOR (GoA) [17]): 24 | Emax (human KOR (GoA) [17]; HEK-293T): 65.8% | FC vs wild type (human KOR (GoA) [18]): 14 and 10 | FC vs wild type (human KOR (GoA) [19]): 6 and ~10 | Emax (human KOR (GoA) [19]; HEK-293T): 86.9% | FC vs wild type (human KOR (GoA) [20]): 479 | Emax (human KOR (GoA) [20]; HEK-293T): 99.5% | Emax (human KOR (GoA) [21]): 75.8% | FC vs wild type (human KOR (GoA) [22]): 13 | Emax (human KOR (GoA) [22]; HEK-293T): 89.5% | FC vs wild type (human KOR (GoA) [23]): 3 | FC vs wild type (human KOR (GoA) [24]): 9 | Emax (human KOR (GoA) [24]; HEK-293T): 101% | Emax (human KOR (GoA) [25]): 109% | FC vs wild type (human KOR (GoA) [26]): 40 | Emax (human KOR (GoA) [26]; HEK-293T): 67.4% | FC vs wild type (human KOR (GoA) [27]): 8 | Emax (human KOR (GoA) [27]; HEK-293T): 91.4% | FC vs wild type (human KOR (GoA) [28]): 2 | Emax (human KOR (GoA) [28]; HEK-293T): 98.9% | Ki (MOR): 13.2 nM
